Tests used:
[1] = test system: Ramos Burkitt’s lymphoma cells; test: Metabolic activity assay (MTS), Ramos; assay type: cell-based, human; conditions: 24 h; for residual metabolic activity relative to control: 50 µM; for cytotoxicity group (Figure 3A) / viability at 100 µM: 100 µM; for viability at 100 µM: Homo sapiens, read-out: residual metabolic activity relative to untreated control
Protocol: When investigating the potency of selected serine protease inhibitors to induce cell death in human B lymphoma cells, we identified a set of compounds cytotoxic for Burkitt’s lymphoma. Using a metabolic activity assay (MTS), we evaluated the proliferation rate of Ramos Burkitt’s lymphoma cells, in the presence of serine protease inhibitors. Cells were treated for 24 h with the compound of interest at concentrations of 100 µM (1–13, 15, 16) or 50 µM (14). After a comparison of metabolic activity relative to that in the untreated control, three groups with distinct modes of action were determined (Figure 3A). […] The second group (compounds 1–3, 5, 7 and 13) caused a moderate decrease (50% to 80%) relative to untreated cells. The last group of compounds (11, 15, 16) severely impaired the metabolic activity, such that it fell to under 6%.
(§1) Cells (1×10^5 cells/mL for Ramos, Daudi, U937 and Jurkat, and 1×10^6 cells/mL for PBMC) were treated with the appropriate amounts of compounds of interest or corresponding vehicle (control cells), then seeded in triplicate in 96 well plates. The metabolic activity was assessed using the CellTiter 96® Aqueous One Solution Cell Proliferation Assay (Promega, Madison/WI, USA), in accordance with the manufacturer’s instructions.

[2] = test system: peripheral blood mononuclear cells (PBMC); test: Metabolic activity assay (MTS), PBMC; assay type: cell-based, human; conditions: 50 µM, 24 h
Protocol: (§2) Compounds 11, and 14–16 were further tested for selective cytotoxicity. The experiments were conducted on freshly isolated primary peripheral blood mononuclear cells (PBMC) and three other haematological cancers: human T cell leukaemia (Jurkat), human histiocytic lymphoma (U937) and human Burkitt’s lymphoma (Daudi). An MTS assay was performed following 24 h of treatment with the compound of interest at 50 µM. […] The inhibition of proliferation in Ramos cells, mediated with compounds 15 and 16, was concentration dependent.
as §1

[3] = test system: human T cell leukaemia (Jurkat); test: Metabolic activity assay (MTS), Jurkat; assay type: cell-based; conditions: 50 µM, 24 h
Protocol: as §2, §1

[4] = test system: human histiocytic lymphoma (U937); test: Metabolic activity assay (MTS), U937; assay type: cell-based; conditions: U937, 50 µM, 24 h
Protocol: as §2, §1

[5] = test system: human Burkitt’s lymphoma (Daudi); test: Metabolic activity assay (MTS), Daudi; assay type: cell-based; conditions: 50 µM, 24 h
Protocol: as §2, §1

[6] = test system: procaspase-3 cleavage in Ramos cells; test: Western blot analysis of caspase-3 processing; assay type: cell-based, human; conditions: compound 50 µM, zVad-fmk 50 µM
Protocol: Ramos cells were seeded in 6-well culture plates at a concentration of 1×10^6 cells/mL and treated with the compound of interest or corresponding vehicle for 1 h, 2 h or 6 h. After the indicated time points, cells were harvested, washed in ice-cold PBS and lysed in modified RIPA buffer (50 mM Tris-HCl, pH 7.4, 150 mM NaCl, 1% NP−40, 0.25% Na-deoxycholate, 1 mM EDTA, 1 µg/mL aprotinin, 1 mM PMSF and 1× Halt Phosphatase inhibitor cocktail (Thermo Scientific, Pierce Biotechnology, IL, USA)). The lysates were sonicated, rocked on ice for 30 min and centrifuged at 13,000 rpm at 4°C for 15 min. Protein samples were electrophoresed in SDS-polyacrylamide gels and then transferred to nitrocellulose membranes. The primary antibodies used were against ubiquitin, phospho-IκBα, IκBα, p65 and caspase-3 (Cell Signaling, Danvers/MA, USA), and p105/p50 (Santa Cruz Biotechnology, Inc., Santa Cruz/CA, USA), and ß-actin (Sigma-Aldrich). Following incubation with the primary antibody, membranes were washed six times and incubated for 1 h at room temperature with the corresponding dilution of the appropriate secondary antibody conjugated with horseradish peroxidase (Upstate, Temecula, CA, USA). The immunoreactivity of respective proteins of interest was determined by chemiluminescence using the SuperSignal West Femto substrate (Pierce, IL, USA), in accordance with the manufacturer's instructions. […]

[7] = molecular target: T1, chymotrypsin-like activity of human 20S proteasome (Homo sapiens, UniProt P28074); test: Proteasome activity measurement, chymotrypsin-like; assay type: biochemical; conditions: purified human 20S proteasome, Suc-Leu-Leu-Val-Tyr-AMC, uncompetitive
T1 construct: purchased Boston Biochem, Inc
Protocol: (§3) Suc-Leu-Leu-Val-Tyr-AMC, Bz-Val-Gly-Arg-AMC and Z-Leu-Leu-Glu-AMC (Bachem, Bubendorf, Switzerland) were used for the chymotrypsin-like, trypsin-like and caspase-like activites, respectively. Assay buffer consisted of TE buffer (20 mM Tris (pH = 8.0), 0.5 mM EDTA, 0.03% SDS). Substrate hydrolysis was continuously monitored at 37°C with an automated microplate reader (Tecan Safire^2). Measured fluorescence values (RFU) were plotted versus time with nonlinear regression to fit a Michaelis-Menten plot.
(§4) For the Ki determination, 25 µL of substrate at three concentrations and 25 µL of inhibitor of interest also at three different concentrations were added to the wells of a white microplate. The reaction was initiated with 50 µL of the enzyme in the assay buffer. Flourescence of the AMC release was continuously monitored at 420 nm with 320 nm excitation.
(§5) Km and Ki were calculated using SigmaPlot 11 (Enzyme Kinetics Module 1.3) and are presented as the mean of three independent experiments.

[8] = molecular target: T2, trypsin-like activity of human 20S proteasome (Homo sapiens, UniProt Q99436); test: Proteasome activity measurement, trypsin-like; assay type: biochemical; conditions: for Ki: purified human 20S proteasome, Bz-Val-Gly-Arg-AMC, non-competitive
T2 construct: purchased Boston Biochem, Inc
Protocol: as §3, §4, §5

[9] = molecular target: T3, caspase-like activity of human 20S proteasome (Homo sapiens, UniProt P28072); test: Proteasome activity measurement, caspase-like; assay type: biochemical; conditions: purified human 20S proteasome, Z-Leu-Leu-Glu-AMC, uncompetitive
T3 construct: purchased Boston Biochem, Inc
Protocol: as §3, §4, §5

[10] = molecular target: T4, 20S proteasome (Homo sapiens, UniProt P28072+P28074+Q99436); test: Rapid dilution assay (reversibility); assay type: biochemical
T4 construct: purchased Boston Biochem, Inc
Protocol: The enzyme-inhibitor complex was diluted 100-fold with the substrate of interest to a final volume of 200 µL, initiating the reaction. In the case of reversibility of the inhibitor the residual enzyme activity was expected to be around 90%.

[11] = molecular target: Thrombin; design: method as in PMID 15497744, PMID 15544050, PMID 17484277; conditions: amidolytic assay, chromogenic substrate; determined previously; cited from earlier work
[12] = molecular target: Trypsin; design: method as in PMID 15497744, PMID 15544050, PMID 17484277; conditions: amidolytic assay, chromogenic substrate; determined previously; cited from earlier work

Compound | residual metabolic activity relative to control [1] | cytotoxicity group (Figure 3A) [1] | viability at 100 µM [1] [%] | residual metabolic activity relative to control [2] | residual metabolic activity relative to control [3] | residual metabolic activity relative to control [4] | residual metabolic activity relative to control [5] | compound-induced procaspase-3 cleavage after zVad-fmk pretreatment [6] | Ki ' chymotrypsin-like activity [7] | Ki [8] [µM] | Ki ' caspase-like activity [9] | reversibility of proteasome inhibition [10] | Ki [11] [µM] | Ki [12] [µM] | mode of inhibition, trypsin-like activity ([8]; SigmaPlot 11)
N=C(N)N1CCC(CN(NS(=O)(=O)c2ccc3ccccc3c2)C(=O)N2CCCCC2)CC1 [Compound 15] | severe and selective decrease | severely cytotoxic (severely impaired the metabolic activity, such that it fell to under 6%) | < 6 | no or only moderate decreases | no or only moderate decreases | no or only moderate decreases | severe and selective decrease | completely blocked | Ki ' = 84±15 µM | 13 | Ki ' = 165±26 µM | reversibly inhibit | 0.47 | 39 | 
N=C(N)N1CCC(CN(NS(=O)(=O)c2ccc3ccccc3c2)C(=O)N2CCCCCC2)CC1 [Compound 16] | severe and selective decrease | severely cytotoxic (severely impaired the metabolic activity, such that it fell to under 6%) | < 6 | no or only moderate decreases | no or only moderate decreases | no or only moderate decreases | severe and selective decrease | completely blocked | Ki ' = 37±13 µM | 17 | Ki ' = 70±3 µM | reversibly inhibit | 0.5 | 66 | non-competitive
